In PubChem BioAssay (NCI):
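1) Cells in 96-well plates. 2) Compound, 48 h, 5 concentrations. 3) Linear interpolation between surrounding doses. 4) Unreached endpoint = highest concentration. Abbreviation: GI50, concentration required for 50% inhibition of growth. TGI denotes the concentration required for complete inhibition of growth.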

Columns and labels:
Assay in all cases: NCI anticancer screen, dose series, 48 h
TK-10 renal = test system: TK-10 renal
OVCAR-8 ovarian = test system: OVCAR-8 ovarian
SK-OV-3 ovarian = test system: SK-OV-3 ovarian
M14 melanoma = test system: M14 melanoma
SK-MEL-28 melanoma = test system: SK-MEL-28 melanoma
SNB-75 CNS = test system: SNB-75 CNS
OVCAR-5 ovarian = test system: OVCAR-5 ovarian
SW-620 colon = test system: SW-620 colon
NCI-H460 lung = test system: NCI-H460 lung
OVCAR-3 ovarian = test system: OVCAR-3 ovarian

SMILES	TGI (TK-10 renal) [µM]	TGI (OVCAR-8 ovarian) [µM]	TGI (SK-OV-3 ovarian) [µM]	TGI (M14 melanoma) [µM]	TGI (SK-MEL-28 melanoma) [µM]	TGI (SNB-75 CNS) [µM]	TGI (OVCAR-5 ovarian) [µM]	TGI (SW-620 colon) [µM]	TGI (NCI-H460 lung) [µM]	TGI (OVCAR-3 ovarian) [µM]	GI50 (OVCAR-8 ovarian) [µM]	GI50 (SK-OV-3 ovarian) [µM]	GI50 (M14 melanoma) [µM]	GI50 (SNB-75 CNS) [µM]	GI50 (OVCAR-5 ovarian) [µM]	GI50 (SW-620 colon) [µM]	GI50 (NCI-H460 lung) [µM]	GI50 (OVCAR-3 ovarian) [µM]	GI50 (SK-MEL-28 melanoma) [µM]
c1ccc(N=c2nc(N3CCOCC3)ss2)cc1	> 100	28.3	> 100	27.9	32.1	39	52.1	21.8	34.7										
O=C(COc1ccc(OCC(=O)NNC2=NC(c3cc(F)c(Cl)cc3Cl)CS2)c(Cl)c1)NNC1=NC(c2cc(F)c(Cl)cc2Cl)CS1 (centres undefined)	> 100	64.5	> 100	> 100	86.9		> 100	> 100	> 100										
CC(=O)OCC1=C(C(=O)O)C(c2ccc3c(c2)OCO3)c2cc3c(cc2O1)OCO3 (centres undefined)	> 100	> 100	> 100	> 100	> 100	> 100		> 100	> 100	> 100									
NC1(C(=O)O)CCc2ccc(N(CCCl)CCCl)cc2C1 (centres undefined)		> 100	> 100		> 100	> 100	> 100	> 100	> 100	> 100									
CCOc1ccc(/C(C=O)=C(\Cl)c2ccc(OC)c(OC)c2)cc1	> 100	> 100	> 100	> 100	> 100			> 100	> 100	> 100									
Cc1cc(C)nc(SCC(=O)OC2CC(C)CCC2C(C)C)n1 (centres undefined)	89.9	> 100	> 100	37	> 100	65.8	47.9	52.3	35.8	28.5									
Cc1cc2c(C(C)C)c(O)c(O)c(C=NCCO)c2c(O)c1-c1c(C)cc2c(C(C)C)c(O)c(O)c(C=NCCO)c2c1O	18.4	21.9	12.3	3.58	3.66	9.13	9.63	16.7	2.41	5.79									
C=C1C(=O)O[C@@H]2[C@H]1CCC(C)=C1C=CC(=O)[C@]12C	38	36.1	61.4		23.4	34.4	31.8	18.4	35.1	31									
Clc1ccc(CNc2nc(Cl)c3[nH]cnc3n2)cc1Cl	84.7	99.2	85.5	70.3		> 100	> 100		73.3	> 100									
COC(=O)[C@@]1(Cc2ccc(O)cc2)C[C@@H]2Cc3ccccc3N2N1	> 100	> 100	> 100	> 100	> 100		> 100	> 100		> 100									
Fc1ccc(-c2nn3c(-c4cc(C(F)(F)F)cc(C(F)(F)F)c4)nnc3s2)cc1		> 50	3.9	> 50		2.36	> 50	> 50	> 50	2.42	1.77	1.38	> 50	0.886	> 50	> 50	1.62	1.16	
Cc1ccc(C2N=C(N)NC3=C2CCOc2c3ccc3ccccc23)cc1 (centres undefined)	> 80.3	> 70.5	> 100	> 55.9	> 100	> 78.6	> 77.1	> 100	> 100	21									
Cc1c(-c2ccccc2)c(C#N)c2nnn(C3CCCCC3)c(=O)n12	> 100	> 100	> 100	> 100	> 100	68.8	> 100	> 100	> 100	> 100									
O=C(Nc1c(C(=O)NC2CCCCC2)[nH]c(=O)[nH]c1=O)c1ccc(Cl)cc1	> 100	> 100	> 100	> 100	> 100	85.1	> 100	> 100	> 100	> 100									
COc1cc(C(=O)C2C(=O)c3ccccc3C2C2(O)c3ccccc3CC2C(O)c2cc(OC)c(OC)c(OC)c2)cc(OC)c1OC (centres undefined)	> 100	> 100	> 100	> 100	> 100	94.3	> 100	> 100	> 100	> 100									
COc1c2c(cc3c1OCO3)C13C=CC(OC)CC1N(CC3)C2 (centres undefined)	> 100	> 100	> 100	> 100	> 100	> 100	> 100	> 100		> 100									
CCCC(N)C(=O)c1ccccc1 (centres undefined)	> 100	> 100	> 100	> 100	> 100	> 100	> 100	> 100	> 100	> 100									
O=C(Nc1ccc(Sc2ccc(N=Nc3c(O)c(S(=O)(=O)O)cc4cc(S(=O)(=O)O)ccc34)cc2)cc1)c1ccc(N=Nc2c(O)ccc3c(S(=O)(=O)O)cc(S(=O)(=O)O)cc23)cc1	> 100	> 100	> 100	66.2	> 100	> 100	> 100	> 100	> 100	92.5									
O=c1c2ccccc2nc2n1C(c1ccc([N+](=O)[O-])cc1)C2(c1ccccc1)c1ccccc1 (centres undefined)	> 100	> 100	> 100	> 100	> 100		> 100	> 100	> 100	> 100									
CCC(=O)NC(Nc1cccc(F)c1)(C(F)(F)F)C(F)(F)F	> 100	> 100	> 100	> 100	> 100	> 100	> 100	> 100	> 100	> 100									
CC(=O)O[C@H]1C=CC(=O)C(C)CC1C (some centres undefined)	> 100		> 100	> 100	> 100	> 100	> 100	> 100	> 100	> 100									
Cc1cc(C)c2c(c1)C1=NCCN1C2(O)c1ccc(Cl)cc1 (centres undefined)	15.5	30.2	28.5	28.4	31	25	33.1	29.2	29.3	31.4									
CC(=O)C=NCC(=O)O	> 100	> 100	> 100	> 100	> 100	> 100	> 100	> 100	> 100	> 100									
O=C(O)C1CCC(=O)N1S(=O)(=O)c1ccccc1 (centres undefined)		> 100	> 100		> 100	> 100	> 100	> 100	> 100	> 100									
COc1ccc(-c2nn(-c3cccc(NC(=O)Nc4ccccc4)c3)cc2-c2ccncc2)cc1Cl		7.18	30.8	4.85	7.16	2.79	8.79	7.36	4.48		2.51	3.4	2.26	1.33	2.5	2.51	2.06		2.62
c1ccc(-c2nnc(SCc3c[nH]c4ccccc34)n2-c2ccccc2)cc1	64.1	> 100	> 100	> 100	> 100	57.6	> 100	> 100	> 100	> 100									
CC(C)(C)OC(=O)NCCC(=O)NC1(c2cc3ccccc3s2)CCCCC1	55.4	35.8	60.1	34.2	35	38.7	39.9	41.1	34.3	33.2									
